Data taken from patent US20250313548A1 (Actio Biosciences, Inc., priority 2023, published 2025).

Target: human, KCNT1 (Homo sapiens (Human), UniProt Q5JUK3)
Test: FLIPR Tl/K Flux Assay
Type: cell-based
Details: HEK293 cells stably expressing human KCNT1; Tl+ flux stimulated with EC80 of agonist Loxapine
Summary of the method: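 HEK293 cells stably expressing human KCNT1 were loaded with FLIPR potassium dye in HEPES/HBSS pH 7.4 with 5 mM probenecid, 1 h at 25 °C, then given test compound for 30 min at 25 °C. Tl+ flux was triggered with chloride-free buffer containing Tl+ and EC80 loxapine and read 160 s. IC50 came from Hill fits of % inhibition.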

human, KCNT1, sequence (Q5JUK3 whole entry): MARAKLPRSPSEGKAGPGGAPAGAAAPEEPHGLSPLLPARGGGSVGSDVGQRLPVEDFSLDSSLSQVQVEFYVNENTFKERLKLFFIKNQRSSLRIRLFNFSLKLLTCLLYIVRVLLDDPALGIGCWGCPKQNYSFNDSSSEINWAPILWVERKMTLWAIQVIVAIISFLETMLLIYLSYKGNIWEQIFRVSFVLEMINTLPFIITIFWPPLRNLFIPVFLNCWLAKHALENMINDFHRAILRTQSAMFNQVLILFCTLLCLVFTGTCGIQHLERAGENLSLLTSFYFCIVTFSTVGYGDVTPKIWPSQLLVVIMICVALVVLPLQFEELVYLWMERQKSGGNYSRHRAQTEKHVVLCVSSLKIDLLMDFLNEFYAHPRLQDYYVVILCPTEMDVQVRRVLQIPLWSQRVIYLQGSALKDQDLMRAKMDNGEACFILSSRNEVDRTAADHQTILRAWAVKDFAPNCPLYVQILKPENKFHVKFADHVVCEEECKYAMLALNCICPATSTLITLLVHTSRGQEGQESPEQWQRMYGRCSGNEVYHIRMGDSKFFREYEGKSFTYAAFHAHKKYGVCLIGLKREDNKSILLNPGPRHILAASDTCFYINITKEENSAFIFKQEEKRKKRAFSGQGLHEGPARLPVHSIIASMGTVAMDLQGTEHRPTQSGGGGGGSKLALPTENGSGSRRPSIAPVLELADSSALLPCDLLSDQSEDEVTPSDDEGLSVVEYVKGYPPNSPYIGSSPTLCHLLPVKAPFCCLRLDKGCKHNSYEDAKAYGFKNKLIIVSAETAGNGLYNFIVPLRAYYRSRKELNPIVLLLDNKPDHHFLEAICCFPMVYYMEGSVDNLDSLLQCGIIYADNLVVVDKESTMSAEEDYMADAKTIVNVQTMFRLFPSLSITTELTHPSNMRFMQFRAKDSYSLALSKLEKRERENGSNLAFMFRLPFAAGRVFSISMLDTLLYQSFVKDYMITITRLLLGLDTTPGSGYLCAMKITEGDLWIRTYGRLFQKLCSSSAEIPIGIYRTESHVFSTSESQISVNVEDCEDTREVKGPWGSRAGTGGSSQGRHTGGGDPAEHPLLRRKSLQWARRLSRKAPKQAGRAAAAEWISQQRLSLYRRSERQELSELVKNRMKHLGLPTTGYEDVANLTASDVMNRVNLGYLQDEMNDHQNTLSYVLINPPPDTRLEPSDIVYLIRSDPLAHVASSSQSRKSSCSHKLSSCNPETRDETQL

SMILES	IC50 [nM]
O=C(N[C@H]1CCCn2nc(-c3ccnc(C(F)(F)F)c3)cc21)c1cncc(C(F)(F)F)n1 [Compound I-437a]	< 250
CC1(C)C[C@H](NC(=O)c2cccc(C#N)c2)c2cc(-c3ccnc(C(F)(F)F)c3)nn2C1 [Compound I-220a, (S)-3-Cyano-N-(6,6-dimethyl-2-(2-(trifluoromethyl)pyridin-4-yl)-4,5,6,7-tetrahydropyrazolo[1,5-a]pyridin-4-yl)benzamide]	250 to 500
O=C(N[C@H]1CCCc2oc(-c3ccnc(C(F)(F)F)c3)nc21)c1cn(C(F)(F)F)nc1C(F)F [Compound I-506a, (S)-3-(Difluoromethyl)-1-(trifluoromethyl)-N-(2-(2-(trifluoromethyl)pyridin-4-yl)-4,5,6,7-tetrahydrobenzo[d]oxazol-4-yl)-1H-pyrazole-4-carboxamide]	< 250
O=C(N[C@H]1CCCc2oc(-c3ccnc(C4CC4)c3)nc21)c1cncc(F)c1 [Compound I-132a, (S)-N-(2-(2-Cyclopropylpyridin-4-yl)-4,5,6,7-tetrahydrobenzo[d]oxazol-4-yl)-5-fluoronicotinamide]	< 250
Cn1nc(C(F)(F)F)cc1C(=O)N[C@H]1CCCn2nc(-c3ccnc(C4CCC4)c3)cc21 [Compound I-377a]	< 250
COc1cc(-n2cc3c(n2)CCCC[C@@H]3NC(=O)c2cccc(C)c2)ccn1 [Compound I-376a]	< 250
C#Cc1cc(-n2cc3c(n2)CC[C@@H]3NC(=O)c2cc(C(F)(F)F)nn2C)ccn1 [Compound I-78a]	< 250
COc1cc(-c2cc3n(n2)CC[C@@H]3NC(=O)c2cc3cccnn3c2)ccn1 [Compound I-292a, (S)-N-(2-(2-Methoxypyridin-4-yl)-5,6-dihydro-4H-pyrrolo[1,2-b]pyrazol-4-yl)pyrrolo[1,2-b]pyridazine-6-carboxamide]	< 250
CCOc1cc(C(=O)N[C@H]2CCCCn3nc(-c4ccnc(C(F)(F)F)c4)cc32)ccn1 [Compound I-283a, (S)-2-Ethoxy-N-(2-(2-(trifluoromethyl)pyridin-4-yl)-5,6,7,8-tetrahydro-4H-pyrazolo[1,5-a]azepin-4-yl)isonicotinamide]	< 250
Cn1ncnc1C(=O)N[C@H]1CCCc2oc(-c3ccnc(C4CC4)c3)nc21 [Compound I-228a, (S)-N-(2-(2-Cyclopropylpyridin-4-yl)-4,5,6,7-tetrahydrobenzo[d]oxazol-4-yl)-1-methyl-1H-1,2,4-triazole-5-carboxamide]	> 1000
O=C(N[C@H]1CCn2nc(-c3ccnc(C(F)(F)F)c3)cc21)c1cn(C(F)(F)F)nc1C(F)F [Compound I-484a, (S)-3-(Difluoromethyl)-1-(trifluoromethyl)-N-(2-(2-(trifluoromethyl)pyridin-4-yl)-5,6-dihydro-4H-pyrrolo[1,2-b]pyrazol-4-yl)-1H-pyrazole-4-carboxamide]	< 250
COc1cc(-c2nc3c(o2)CCC[C@H]3NC(=O)c2cncc(C(F)(F)F)n2)ccn1 [Compound I-471b]	500 to 1000
Cc1nc(C(F)(F)F)c(C(=O)N[C@H]2CCCn3nc(-c4ccnc(C(F)(F)F)c4)cc32)s1 [Compound I-406a]	250 to 500
COc1cc(-c2cc3n(n2)CC[C@@H]3NC(=O)c2nc(C(F)(F)F)nn2C)ccn1 [Compound I-237a, (S)-N-(2-(2-Methoxypyridin-4-yl)-5,6-dihydro-4H-pyrrolo[1,2-b]pyrazol-4-yl)-1-methyl-3-(trifluoromethyl)-1H-1,2,4-triazole-5-carboxamide]	< 250
COc1cc(C(=O)NC2CCCc3nn(-c4ccnc(C(F)(F)F)c4)cc32)n(C)n1 (racemic) [Compound I-21, (rac)-3-Methoxy-1-methyl-N-(2-(2-(trifluoromethyl)pyridin-4-yl)-4,5,6,7-tetrahydro-2H-indazol-4-yl)-1H-pyrazole-5-carboxamide]	> 1000
Cn1nc(C(F)(F)F)cc1C(=O)NC1CCn2nc(-c3ccnc(C(F)(F)F)c3)cc2C1 (centres unmarked) [Compound I-468]	< 250
CCOc1cc(-n2cc3c(n2)CCCCC3NC(=O)c2cccc(C)c2)ccn1 (racemic) [Compound I-59, (rac)-N-(2-(2-Ethoxypyridin-4-yl)-2,4,5,6,7,8-hexahydrocyclohepta[c]pyrazol-4-yl)-3-methylbenzamide]	< 250
O=C(N[C@H]1CCc2nn(-c3ccnc(C(F)(F)F)c3)cc21)c1cc(F)cc(C2CC2)c1 [Compound I-562a, (S)-3-Cyclopropyl-5-fluoro-N-(2-(2-(trifluoromethyl)pyridin-4-yl)-2,4,5,6-tetrahydrocyclopenta[c]pyrazol-4-yl)benzamide]	< 250
COc1cc(-c2cc3n(n2)CC[C@@H]3NC(=O)c2cc(C(F)(F)F)nn2C)c(C(F)(F)F)cn1 [Compound I-172a, (S)-N-(2-(2-Methoxy-5-(trifluoromethyl)pyridin-4-yl)-5,6-dihydro-4H-pyrrolo[1,2-b]pyrazol-4-yl)-1-methyl-3-(trifluoromethyl)-1H-pyrazole-5-carboxamide]	< 250
CCOc1cc(-n2cc3c(n2)CCCC3NC(=O)c2ccccc2)ccn1 (centres unmarked) [Compound I-27]	> 1000
Cc1nc(C(=O)N[C@H]2CCn3nc(-c4ccnc(C5CC5)c4)cc32)n(C)n1 [Compound I-218a, (S)-N-(2-(2-Cyclopropylpyridin-4-yl)-5,6-dihydro-4H-pyrrolo[1,2-b]pyrazol-4-yl)-1,3-dimethyl-1H-1,2,4-triazole-5-carboxamide]	250 to 500

SMILES	IC50 [nM]
Cn1nc(C(F)(F)F)cc1C(=O)N[C@@H]1CCn2nc(-c3ccnc(C(F)(F)F)c3)cc21 [Compound I-123b, (R)-1-methyl-3-(trifluoromethyl)-N-(2-(2-(trifluoromethyl)pyridin-4-yl)-5,6-dihydro-4H-pyrrolo[1,2-b]pyrazol-4-yl)-1H-pyrazole-5-carboxamide]	250 to 500
O=C(N[C@@H]1CCCn2nc(-c3cc(C(F)(F)F)ncc3F)nc21)c1cncc(C(F)(F)F)n1 [Compound I-502b]	> 1000
Cn1nc(C(F)(F)F)nc1C(=O)N[C@@H]1CCn2nc(-c3ccnc(C(C)(F)F)c3)cc21 [Compound I-480b]	500 to 1000
CC1(C)CC(C(=O)N[C@H]2CCn3nc(-c4cc(C(F)(F)F)ncc4F)cc32)C1 [Compound I-523a, (S)-N-(2-(5-Fluoro-2-(trifluoromethyl)pyridin-4-yl)-5,6-dihydro-4H-pyrrolo[1,2-b]pyrazol-4-yl)-3,3-dimethylcyclobutane-1-carboxamide]	< 250
Cc1cc(C#N)cc(C(=O)N[C@H]2CCn3nc(-c4ccnc(C(F)(F)F)c4)cc32)c1 [Compound I-334a, (S)-3-Cyano-5-methyl-N-(2-(2-(trifluoromethyl)pyridin-4-yl)-5,6-dihydro-4H-pyrrolo[1,2-b]pyrazol-4-yl)benzamide]	< 250
N#Cc1cccc(C(=O)N[C@H]2CCCn3nc(-c4ccnc(C5CC5)c4)cc32)c1 [Compound I-449a]	< 250
Cc1cc(C)cc(C(=O)N[C@H]2CCc3nn(-c4ccnc(C(F)(F)F)c4)cc32)c1 [Compound I-372a]	< 250
Cn1nc(C(F)(F)F)cc1C(=O)N[C@@H]1CCCc2cnc(-c3ccnc(C(F)(F)F)c3)nc21 [Compound I-452b]	> 1000
COc1cc(-c2cc3c(cn2)CCCC3NC(=O)c2cc(C(F)(F)F)nn2C)ccn1 (centres unmarked) [Compound I-393]	> 1000
Cc1nc(C(F)(F)F)oc1C(=O)N[C@H]1CCCc2cnc(-c3ccnc(C(F)(F)F)c3)cc21 (single isomer, unassigned) [I-271*]	500 to 1000
O=C(N[C@H]1CCCc2nc(-c3ccnc(C(F)(F)F)c3)oc21)c1cccc(OC(F)(F)F)c1 [Compound I-187a, (S)-3-(Trifluoromethoxy)-N-(2-(2-(trifluoromethyl)pyridin-4-yl)-4,5,6,7-tetrahydrobenzo[d]oxazol-7-yl)benzamide]	< 250
Cc1cccc(C(=O)N[C@H]2CCCCc3nn(-c4ccnc(C5CC5)c4)cc32)c1 [Compound I-58a]	< 250
Cc1cc(C(=O)N[C@H]2CCCn3nc(-c4ccnc(C(F)(F)F)c4)cc32)n(-c2ccccc2)n1 [Compound I-448a]	< 250
O=C(N[C@H]1CCCc2nc(-c3ccnc(C4CC4)c3)oc21)c1cccc(OC(F)(F)F)c1 [Compound I-170a, (S)-N-(2-(2-Cyclopropylpyridin-4-yl)-4,5,6,7-tetrahydrobenzo[d]oxazol-7-yl)-3-(trifluoromethoxy)benzamide]	< 250
O=C(N[C@H]1CCCn2nc(-c3ccnc(C4CC4)c3)cc21)c1ccnc(OC(F)(F)F)c1 [Compound I-193a, (S)-N-(2-(2-Cyclopropylpyridin-4-yl)-4,5,6,7-tetrahydropyrazolo[1,5-a]pyridin-4-yl)-2-(trifluoromethoxy)isonicotinamide]	< 250
CCc1cc(F)cc(C(=O)N[C@@H]2CCc3nn(-c4ccnc(C(F)(F)F)c4)cc32)c1 [Compound I-127b]	< 250
O=C(N[C@H]1CCn2nc(-c3ccnc(C(F)(F)F)c3)cc21)c1ccnc(OC(F)(F)F)c1 [Compound I-198a, (S)-2-(Trifluoromethoxy)-N-(2-(2-(trifluoromethyl)pyridin-4-yl)-5,6-dihydro-4H-pyrrolo[1,2-b]pyrazol-4-yl)isonicotinamide]	< 250
Cn1nc(C(F)(F)F)nc1C(=O)N[C@H]1CCn2nc(-c3cc(C4CC4)ncc3F)cc21 [Compound I-483a, (S)—N-(2-(2-Cyclopropyl-5-fluoropyridin-4-yl)-5,6-dihydro-4H-pyrrolo[1,2-b]pyrazol-4-yl)-1-methyl-3-(trifluoromethyl)-1H-1,2,4-triazole-5-carboxamide]	< 250
Cn1nc(C(F)(F)F)cc1C(=O)N[C@@H]1CCc2cnc(-c3ccnc(C(F)(F)F)c3)nc21 [Compound I-46b, (R)-1-methyl-3-(trifluoromethyl)-N-(2-(2-(trifluoromethyl)pyridin-4-yl)-6,7-dihydro-5H-cyclopenta[d]pyrimidin-7-yl)-1H-pyrazole-5-carboxamide]	> 1000
N#Cc1cccc(C(=O)N[C@H]2CCCCn3nc(-c4ccnc(C(F)(F)F)c4)cc32)c1 [Compound I-443a]	< 250
